Data as given in patent publication US20240301003A1 (NoNO Inc., priority 2021, published 2024).
Where a SMILES comes first, the peptide text is derived from it.

Assays:
[1] = rat, in vivo, sc, 25 mg/kg
[2] = system: histamine release; conditions: rat, in vivo, iv, 7.6 mg/kg
Procedure: Histamine levels were quantified by using commercially available histamine ELISA assay kit (Histamine ELISA-H1531-K01, Eagle Bioscience). The plates were coated with the plasma samples (50 ul/well) incubated for 60 minutes at room temperature on an orbital shaker with medium frequency. Then 100 ul of enzyme conjugate was added to the wells and incubated for 20 minutes at room temperature. […] The reaction was stopped with 100 ul H2SO4. Absorbance was determined on an ELISA plate reader at 450 nm.
Blood samples were taken at pre-injection and at 0, 1, 2.5, 5, 10, 15, 30- and 60-minutes post dose and used for histamine levels quantification using commercially available kit.

[3] = target: tPA (Homo sapiens, UniProt P00750)
[4] = target: PSD95PDZ2 (Homo sapiens, UniProt P78352); assay: Competitive ELISA with biotinylated-NA-1
[5] = MTD studies and renal toxicity in rats (creatinine, BUN); conditions: rats, subcutaneous 25 mg/kg

PSD95PDZ2, sequence (P78352 160-246 limits assumed): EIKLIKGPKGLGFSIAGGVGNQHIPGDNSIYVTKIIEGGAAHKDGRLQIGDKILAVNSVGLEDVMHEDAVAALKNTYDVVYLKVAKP
tPA, sequence (P00750 36-562): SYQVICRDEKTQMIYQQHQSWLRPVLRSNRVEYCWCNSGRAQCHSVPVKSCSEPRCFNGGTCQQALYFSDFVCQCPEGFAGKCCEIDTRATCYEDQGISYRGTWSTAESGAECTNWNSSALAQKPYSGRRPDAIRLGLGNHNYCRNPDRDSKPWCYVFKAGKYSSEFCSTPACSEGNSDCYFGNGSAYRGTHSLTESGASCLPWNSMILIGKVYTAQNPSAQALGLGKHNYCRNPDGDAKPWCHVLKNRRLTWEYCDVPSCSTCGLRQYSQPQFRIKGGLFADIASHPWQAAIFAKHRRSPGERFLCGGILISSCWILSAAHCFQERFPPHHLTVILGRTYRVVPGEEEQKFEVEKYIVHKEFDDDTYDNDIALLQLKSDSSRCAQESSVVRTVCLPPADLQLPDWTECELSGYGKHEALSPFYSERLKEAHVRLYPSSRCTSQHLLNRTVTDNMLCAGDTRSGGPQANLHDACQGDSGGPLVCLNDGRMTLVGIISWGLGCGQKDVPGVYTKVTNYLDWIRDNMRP

CC[C@H](C)[C@H](NC(=O)[C@H](CO)NC(=O)[C@H](CO)NC(=O)[C@H](CC(C)C)NC(=O)[C@H](CCCCN)NC(=O)[C@@H](CCCNC(=N)N)NC(=O)[C@@H](CCCNC(=N)N)NC(=O)[C@@H](CCCNC(=N)N)NC(=O)[C@@H](CCC(N)=O)NC(=O)[C@@H](CCCNC(=N)N)NC(=O)[C@@H](CCCNC(=N)N)NC(=O)[C@@H](CCCCN)NC(=O)[C@@H](CCCCN)NC(=O)[C@@H](CCCNC(=N)N)NC(=O)CNC(=O)[C@H](N)Cc1ccc(O)cc1)C(=O)N[C@@H](CCC(=O)O)C(=O)N[C@@H](CO)C(=O)N[C@@H](CC(=O)O)C(=O)N[C@H](C(=O)O)C(C)C [D-Tat-L-2B9C] (HELM PEPTIDE1{[dY].G.[dR].[dK].[dK].[dR].[dR].[dQ].[dR].[dR].[dR].K.L.S.S.I.E.S.D.V}$$$$V2.0; N-terminus and C-terminus assumed)
AUC compared with subcutaneous NA-1 [1]: increased Cmax and AUC relative to subcutaneous NA-1 but not to the same extent
Cmax compared with subcutaneous NA-1 [1]: increased Cmax and AUC relative to subcutaneous NA-1 but not to the same extent
histamine release [2]: did result in significant histamine release
degradation, control treatment with tPA [3]: no degradation
IC50 [4]: < 5 µM
IC50's relative to each other ([4]; FIG. 11, within the margin of error): within a factor of two of each other
EC50 (compared between peptides) ([4]; PSD-95 domain 2, FIG. 12): about the same within experimental error
creatinine versus the same dose level of NA-3 [5]: Much less creatinine is observed
